From patent publication US9925168B2, “Preparation of micronized particles of an antimuscarinic compound by hydrodynamic cavitation” (CHIESI FARMACEUTICI S.P.A., priority 2016, dated 2018)

Legend:
[1] = Physical stability (particle size growth) upon storage; format: physicochemical; settings: at least three months, ambient conditions (22±2° C. and 60% relative humidity)
Source text: The physical stability shall be measured by using a Sympatec Dry Dispersion Size Analyzer, while the chemical stability shall be determined according to known method such as HPLC.

[2] = Particle size by laser light diffraction (Sympatec Dry Dispersion Size Analyzer); format: physicochemical; set-up: d[v,10] / d[v,50] / d[v,90]: unit not given here; settings: for Span: Span=[d(v,0.9)-d(v,0.1)]/d(v,0.5); for d[v,10] / d[v,50] / d[v,90]: average of triplicate
Protocol: The particle size was determined by Laser light diffraction using the Sympatec Dry Dispersion Size Analyzer (Clausthal-Zellerfeld, Germany).
The powder was dispersed for two measurement conditions at an air pressure of 1 and 4 bar.
The average d[v,10], d[v,50], d[v,90] values were calculated from triplicate measurements. The span was calculated using the following equation: Span=[d(v,0.9)−d(v,0.1)]/d(v,0.5)

C[N+]1(C)CCC(OC(=O)C(O)(c2ccccc2)C2CCCC2)C1.[Br-] (racemic) [Example 1, (3S,2′R), (3R,2′S)-3-[(Cyclopentylhydroxyphenylacetyl)oxy]-1,1-dimethylpyrrolidinium bromide racemic mixture]
growth of the particle size upon storage [1]: No significant growth of the particle size | Span ([2]; dispersion pressure 1.0 bar): 1.50 | d[v,10] ([2]; dispersion pressure 1.0 bar): 0.81 | d[v,50] ([2]; dispersion pressure 1.0 bar): 4.17 | d[v,90] ([2]; dispersion pressure 1.0 bar): 7.05 | Span ([2]; dispersion pressure 4.0 bar): 2.19 | d[v,10] ([2]; dispersion pressure 4.0 bar): 0.43 | d[v,50] ([2]; dispersion pressure 4.0 bar): 2.29 | d[v,90] ([2]; dispersion pressure 4.0 bar): 5.45
